Experimental data from patent publication US20080119515A1, “Heterocyclic Kinase Inhibitors: Methods of Use and Synthesis” (priority 2003, published 2008).

What follows are molecules tested against T1, ZAP-70 (Homo sapiens, UniProt P43403) (assay: DELFIA assay (ZAP-70 kinase, phosphorylation of biotinylated poly(glu,tyr))). Settings: ZAP-70 DELFIA, class symbols; read-out: Activity (IC50 in vitro).
T1 sequence (P43403 1-619): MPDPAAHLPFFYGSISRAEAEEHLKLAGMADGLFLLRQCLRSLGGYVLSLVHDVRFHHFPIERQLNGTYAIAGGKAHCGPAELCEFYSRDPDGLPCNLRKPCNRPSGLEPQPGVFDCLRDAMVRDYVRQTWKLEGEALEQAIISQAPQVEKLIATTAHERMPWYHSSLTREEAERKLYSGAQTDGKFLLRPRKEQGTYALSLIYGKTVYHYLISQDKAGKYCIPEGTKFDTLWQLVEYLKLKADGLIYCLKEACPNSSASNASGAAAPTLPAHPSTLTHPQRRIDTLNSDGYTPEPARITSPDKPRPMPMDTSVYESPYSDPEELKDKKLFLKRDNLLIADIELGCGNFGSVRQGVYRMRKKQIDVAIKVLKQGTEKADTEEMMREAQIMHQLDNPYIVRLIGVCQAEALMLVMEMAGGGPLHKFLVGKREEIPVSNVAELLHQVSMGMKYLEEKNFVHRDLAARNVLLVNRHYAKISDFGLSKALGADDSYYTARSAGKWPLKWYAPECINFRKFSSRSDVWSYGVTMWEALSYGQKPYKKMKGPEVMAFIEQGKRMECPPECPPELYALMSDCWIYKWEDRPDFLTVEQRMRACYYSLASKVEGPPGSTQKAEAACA
Type: biochemical
Method in brief: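 3.1 nM ZAP-70 pre-incubated 10 min at room temperature with compound ([…]) and 62.5 nM biotinylated poly(glu,tyr) in 62.5 mM Mops pH 7.0, 12.5 mM MgCl2, 12.5% glycerol, 6.25% DMSO (pre-incubation concentrations); ATP added from 5 mM stock, 30 min reaction, EDTA stop. Phosphorylation read by DELFIA europium anti-phosphotyrosine fluorescence (340/615).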

IC50 [µM] | SMILES
> 10 | CC(=O)N[C@H]1CCN(c2cc(C(=O)N3CCC[C@H]3CN3CCCC3)c3cc(-c4ccc5c(c4)OCO5)ccc3n2)C1 [Compound 69]
> 10 | O=C(c1cc(NC2CC2)nc2ccccc12)N1CCC[C@H]1CN1CCCC1 [Compound 9]
< 1 | O=C(c1cc(OCc2ccccc2)nc2ccc(-c3ccc4c(c3)OCO4)cc12)N1CCC[C@H]1CN1CCCC1 [Compound 23]
> 10 | N#Cc1ccc(-c2ccc3nc(NCc4ccccc4OC(F)(F)F)cc(C(=O)N4CCC[C@H]4CN4CCCC4)c3c2)cc1 [Compound 236]
1 to 10 | O=C(c1cc(NC2CC2)nc2ccc(-c3ccc4c(c3)OCO4)cc12)N1CCC[C@H]1CN1CCCC1 [Compound 2]
1 to 10 | O=C(Nc1cc(C(=O)N2CCC[C@H]2CN2CCCC2)c2cc(-c3ccc4c(c3)OCO4)ccc2n1)c1ccc(Cl)cc1 [Compound 386]
< 1 | CN1CCN(c2ccc(Nc3cc(Nc4ccc(N5CCN(C)CC5)cc4)c4cc(-c5ccc6c(c5)OCO6)ccc4n3)cc2)CC1 [Compound 448]
> 10 | C[C@@H](c1cccc2ccccc12)N(C)c1cc(C(=O)N2CCC[C@H]2CN2CCCC2)c2cc(-c3ccc(C#N)cc3)ccc2n1 [Compound 219]
< 1 | O=C(c1cc(NCc2ccc(F)cc2F)nc2ccc(-c3ccc4c(c3)OCO4)cc12)N1CCC[C@H]1CN1CCCC1 [Compound 46]
> 10 | CN(CCc1ccccc1)c1cc(C(=O)N2CCC[C@H]2CN2CCCC2)cc(-c2ccccc2)n1 [Compound 367]
1 to 10 | O=C(c1cc(NCc2ccncc2)nc2ccc(-c3ccc4c(c3)OCO4)cc12)N1CCC[C@H]1CN1CCCC1 [Compound 38]
> 10 | N#Cc1ccc(-c2ccc3nc(N4CCCC(c5cccc(F)c5)C4)cc(C(=O)N4CCC[C@H]4CN4CCCC4)c3c2)cc1 (stereo partly drawn) [Compound 268]
> 10 | N#Cc1ccc(-c2ccc3nc(N[C@H]4CCc5ccccc54)cc(C(=O)N4CCC[C@H]4CN4CCCC4)c3c2)cc1 [Compound 183]
< 1 | C[C@H](Nc1cc(C(=O)N2CCC[C@H]2CN2CCCC2)c2cc(-c3ccc(C#N)cc3)ccc2n1)[C@H](O)c1ccccc1 [Compound 317]
< 1 | COc1cccc(Nc2cc(C(=O)N3CCC[C@H]3CN3CCCC3)c3cc(-c4ccc5c(c4)OCO5)ccc3n2)c1 [Compound 17]
> 10 | CN(CCc1cccs1)c1cc(C(=O)N2CCC[C@H]2CN2CCCC2)c2cc(-c3ccc(C#N)cc3)ccc2n1 [Compound 273]
1 to 10 | O=C(c1cc(N2CCOCC2)nc2ccc(-c3ccc4c(c3)OCO4)cc12)N1CCC[C@H]1CN1CCOCC1 [Compound 5]
1 to 10 | O=C(c1cc(CCc2ccc(C(F)(F)F)cc2)nc2ccc(-c3ccc4c(c3)OCO4)cc12)N1CCC[C@H]1CN1CCCC1 [Compound 137]
> 10 | CCN(Cc1ccc(C)cc1)c1cc(C(=O)N2CCC[C@H]2CN2CCCC2)c2cc(-c3ccc(C#N)cc3)ccc2n1 [Compound 244]
< 1 | N#Cc1csc2ccc(-c3ccc4nc(NCc5ccc(C(F)(F)F)cc5)cc(C(=O)N5CCC[C@H]5CN5CCCC5)c4c3)cc12 [Compound 351]

The remaining lines, values behind:

SMILES | IC50 [µM]
N#Cc1ccc(-c2ccc3nc(N4CCC(c5ccc(Cl)cc5)C4)cc(C(=O)N4CCC[C@H]4CN4CCCC4)c3c2)cc1 (stereo partly drawn) [Compound 261] | > 10
O=C(Cc1cc(C(=O)N2CCC[C@H]2CN2CCCC2)c2cc(-c3ccc4c(c3)OCO4)ccc2n1)c1ccc(C(F)(F)F)cc1 [Compound 431] | 1 to 10
COc1cc(-c2ccc3nc(NCc4ccc(C(F)(F)F)cc4)cc(C(=O)N4CCC[C@H]4CN4CCCC4)c3c2)ccc1O [Compound 418] | > 10
O=C(c1cc(NCc2ccc(C(F)(F)F)cc2)nc2cc(-c3ccc4c(c3)OCO4)ccc12)N1CCC[C@H]1CN1CCCC1 [Compound 118] | 1 to 10
N#Cc1ccc(-c2ccc3nc(NCc4cccc(Cl)c4)cc(C(=O)N4CCC[C@H]4CN4CCCC4)c3c2)cc1 [Compound 167] | > 10
O=C(c1cc(CCc2ccc(F)cc2F)nc2ccc(-c3ccc4c(c3)OCO4)cc12)N1CCC[C@H]1CN1CCCC1 [Compound 397] | < 1
O=C(c1cc(Sc2ccc(OC(F)(F)F)cc2)nc2ccc(-c3ccc4c(c3)OCO4)cc12)N1CCC[C@H]1CN1CCCC1 [Compound 325] | < 1
O=C(c1cc(NCc2ccc(C(F)(F)F)cc2)nc2ccc(-c3ccc4c(c3)OCC4)cc12)N1CCC[C@H]1CN1CCCC1 [Compound 280] | < 1
O=C(c1cc(Cc2ccc(Cl)cc2Cl)nc2ccc(-c3ccc4c(c3)OCO4)cc12)N1CCC[C@H]1CN1CCCC1 [Compound 401] | < 1
O=C(c1cc(NCc2ccc(C(F)(F)F)cc2)nc2ccc(-c3ccc4c(c3)OCCO4)cc12)N1CCC[C@H]1CN1CCCC1 [Compound 126] | < 1
O=C(c1cc(N2CCN(C3CCCC3)CC2)nc2ccc(-c3ccc4c(c3)OCO4)cc12)N1CCC[C@H]1CN1CCCC1 [Compound 79] | 1 to 10
O=C(c1cc(NCc2ccc(F)c(Cl)c2)nc2ccc(-c3ccc4c(c3)OCO4)cc12)N1CCC[C@H]1CN1CCCC1 [Compound 40] | < 1
CN(c1ccccn1)c1cc(C(=O)N2CCC[C@H]2CN2CCCC2)c2cc(-c3ccc4c(c3)OCO4)ccc2n1 [Compound 78] | 1 to 10
N=C(NC1CCCCC1)[C@@H]1CCCN1C(=O)c1cc(NCc2ccc(C(F)(F)F)cc2)nc2ccc(-c3ccc4c(c3)OCO4)cc12 [Compound 380] | > 10
COc1ccc(CCNc2cc(C(=O)N3CCC[C@H]3CN3CCCC3)c3cc(-c4ccc(C#N)cc4)ccc3n2)cc1 [Compound 177] | > 10
O=C(c1cc(NCc2ccc(C(F)(F)F)cc2)nc2ccc(-c3ccc(F)cc3F)cc12)N1CCC[C@H]1CN1CCCC1 [Compound 307] | 1 to 10
C[C@H](Nc1cc(C(=O)N2CCC[C@H]2CN2CCCC2)c2cc(-c3ccc(C#N)cc3)ccc2n1)c1ccccc1 [Compound 176] | > 10
C[Si](C)(C)C#Cc1cc(C(=O)N2CCC[C@H]2CN2CCCC2)c2cc(-c3ccc4c(c3)OCO4)ccc2n1 [Compound 402] | < 1

SMILES | IC50 [µM]
N#Cc1ccc(-c2ccc3nc(NCc4ccccc4C(F)(F)F)cc(C(=O)N4CCC[C@H]4CN4CCCC4)c3c2)cc1 [Compound 164] | > 10
O=C(c1cc(NCc2ccc(C(F)(F)F)cc2)nc2ccc(-c3ccc4c(c3)OC(F)(F)O4)cc12)N1CCC[C@H]1CN1CCCC1 [Compound 348] | < 1
CC[C@@H](Nc1cc(C(=O)N2CCC[C@H]2CN2CCCC2)c2cc(-c3ccc(C#N)cc3)ccc2n1)c1ccccc1 [Compound 184] | > 10
O=C(c1cc(NCC(O)c2ccccc2)nc2ccc(-c3ccc4c(c3)OCO4)cc12)N1CCC[C@H]1CN1CCCC1 (stereo partly drawn) [Compound 55] | < 1
Cc1ccc(F)cc1CNc1cc(C(=O)N2CCC[C@H]2CN2CCCC2)c2cc(-c3ccc(C#N)cc3)ccc2n1 [Compound 226] | > 10
CN(C)c1ccc(Nc2cc(/C=C/c3ccc(F)cc3)nc3ccc(-c4ccc5c(c4)OCO5)cc23)cc1 [Compound 412] | > 10
Fc1ccc(CCc2cc(Nc3ccc(N4CCNCC4)cc3)c3cc(-c4ccc5c(c4)OCO5)ccc3n2)cc1 [Compound 414] | > 10
N#Cc1cccc(-c2ccc3c(C(=O)N4CCC[C@H]4CN4CCCC4)cc(NCc4ccc(C(F)(F)F)cc4)nc3c2)c1 [Compound 119] | > 10
O=C(c1cc(/C=C/c2ccccc2)nc2ccc(-c3ccc4c(c3)OCO4)cc12)N1CCC[C@H]1CN1CCCC1 [Compound 130] | 1 to 10
CN(CCc1ccccc1)c1cc(C(=O)N2CCC[C@H]2CN2CCCC2)cc(N(C)CCc2ccccc2)n1 [Compound 372] | 1 to 10
N#Cc1ccc(-c2ccc3nc(NCc4ccccc4F)cc(C(=O)N4CCC[C@H]4CN4CCCC4)c3c2)cc1 [Compound 158] | > 10
O=C(c1cc(Cc2ccc(N3CCC4(CC3)CNC4)cc2)nc2ccc(-c3ccc4c(c3)OCO4)cc12)N1CCCC1CN1CCCC1 (stereo not drawn) [Compound 445] | < 1
O=C(c1cc(NCc2ccc(C(F)(F)F)cc2)nc2ccc(-c3ccc4c(c3)OCO4)cc12)N1CCC[C@H]1CNC1CC1 [Compound 361] | 1 to 10
O=C(c1cc(NC2CCCC2)nc2ccc(-c3ccc4c(c3)OCO4)cc12)N1CCC[C@H]1CN1CCCC1 [Compound 28] | > 10
O=C(c1cc(NCc2ccc(C(F)(F)F)cc2)nc2ccc(CCc3ccccc3)cc12)N1CCC[C@H]1CN1CCCC1 [Compound 285] | 1 to 10
CC[C@H](Nc1cc(C(=O)N2CCC[C@H]2CN2CCCC2)c2cc(-c3ccc(C#N)cc3)ccc2n1)c1ccccc1 [Compound 171] | > 10
O=C(c1cc(N[C@H]2CCc3ccccc32)nc2ccc(-c3ccc4c(c3)OCO4)cc12)N1CCC[C@H]1CN1CCCC1 [Compound 41] | < 1
Cc1noc(C)c1-c1ccc2nc(NCc3ccc(C(F)(F)F)cc3)cc(C(=O)N3CCC[C@H]3CN3CCCC3)c2c1 [Compound 338] | > 10

Same assay, conditions: ZAP-70 DELFIA, numeric value; read-out: Activity (IC50 in vitro)

IC50 [µM] | SMILES
1.78 | Cc1ccc(-c2ccc3nc(NCc4ccc(C(F)(F)F)cc4)cc(C(=O)N4CCC[C@H]4CN4CCCC4)c3c2)s1 [Compound 301]
